Experimental findings from publication PMC9374667 (Communications Biology, 2022) are described below.

SMILES strings stand for the structures. “And” between values parts separate entries of the source, which are not always exact repeats. Identical values can stand only once.

Test [1] deals with T1, TBK1 (Mus musculus, UniProt Q9WUN2).
T1 sequence (Q9WUN2 1-729): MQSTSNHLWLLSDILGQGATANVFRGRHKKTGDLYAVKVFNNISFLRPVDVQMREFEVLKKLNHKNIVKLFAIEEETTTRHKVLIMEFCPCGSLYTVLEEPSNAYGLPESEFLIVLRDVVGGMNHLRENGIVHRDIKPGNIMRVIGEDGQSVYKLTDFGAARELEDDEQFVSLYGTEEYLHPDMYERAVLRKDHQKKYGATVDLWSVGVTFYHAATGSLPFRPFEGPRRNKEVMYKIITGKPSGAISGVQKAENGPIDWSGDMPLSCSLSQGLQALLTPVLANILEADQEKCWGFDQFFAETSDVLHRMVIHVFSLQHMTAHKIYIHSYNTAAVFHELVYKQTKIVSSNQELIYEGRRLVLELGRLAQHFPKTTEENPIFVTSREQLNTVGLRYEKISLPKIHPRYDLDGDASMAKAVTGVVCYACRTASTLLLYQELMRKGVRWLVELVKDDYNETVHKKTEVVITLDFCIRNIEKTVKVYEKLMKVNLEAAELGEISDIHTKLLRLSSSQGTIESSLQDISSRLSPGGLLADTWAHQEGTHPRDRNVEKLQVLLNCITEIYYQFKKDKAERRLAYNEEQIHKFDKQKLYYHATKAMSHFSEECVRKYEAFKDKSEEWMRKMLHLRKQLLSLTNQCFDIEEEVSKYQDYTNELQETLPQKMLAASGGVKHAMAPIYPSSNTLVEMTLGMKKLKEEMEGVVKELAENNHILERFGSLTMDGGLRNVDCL
As to the kind of experiment: TBK1 activity assay in BAT. As to conditions: for the expression of TBK1 in BAT of db/db mice: Figure 6m, individual values. Also on record: The adipose tissue was ultrasound-crushed in PBS buffer solution (1:9 w/v) to prepare the tissue homogenate; from tissue; host or cells: epididymal white adipose tissue (eWAT) and brown adipose tissue (BAT) of C57BLKS WT and db/db mice. It counts as in vivo, mice. The method, then:
(§1) The adipose tissue was ultrasound-crushed in PBS buffer solution (1:9 w/v) to prepare the tissue homogenate. The tissue homogenate was centrifuged at 5000 × g for 10 min, and the supernatant was taken for detection. Briefly, samples or standards were added to the microplates pre-coated with IKKε antibody or TBK1 antibody. Then horseradish peroxidase (HRP) labeled antibody was added and incubated at 37 °C for 60 min. After thorough washing, the 3,3′,5,5′-tetramethylbenzidine (TMB) substrate was used for color development, and the absorbance (OD value) was determined at 450 nm.

The target of test [2] is T1, TBK1. Kind of test: TBK1 activity assay in eWAT. Also noted: The adipose tissue was ultrasound-crushed in PBS buffer solution (1:9 w/v) to prepare the tissue homogenate; from tissue; host or cells: epididymal white adipose tissue (eWAT) and brown adipose tissue (BAT) of C57BLKS WT and db/db mice. As to conditions: for the expression of TBK1 in eWAT of db/db mice: Figure 6c, individual values. The format is in vivo, mice. The method, then: as §1

With `CC(C)Cc1ccc(C(C)C(=O)[O-])cc1.COc1ccc2cc3[n+](cc2c1OC)CCc1cc2c(cc1-3)OCO2.O.O.O.O` [BJ, berberine-ibuprofen], the “the expression of TBK1 in BAT of db/db mice” value on TBK1 [1] (db/db+BJ 75mg/kg) is 0.366 U/g and 0.397 U/g and 0.402 U/g and 0.336 U/g and 0.384 U/g and 0.344 U/g; at TBK1 [1] (db/db+BJ 150mg/kg) it was 0.338 U/g and 0.377 U/g and 0.358 U/g and 0.428 U/g and 0.335 U/g and 0.369 U/g. Further, the “TBK1 activity and expression levels in BAT” value on TBK1 [1] (db/db mice, both doses of BJ) is listed as “had no effect”. For the same compound, the “the expression of TBK1 in eWAT of db/db mice” value is 0.538 U/g and 0.576 U/g and 0.532 U/g and 0.587 U/g and 0.53 U/g at TBK1 [2] (db/db+BJ 75mg/kg); 0.413 U/g and 0.391 U/g and 0.35 U/g and 0.361 U/g and 0.451 U/g and 0.379 U/g at TBK1 [2] (db/db+BJ 150mg/kg). The “TBK1 kinase activity in eWAT” value on TBK1 [2] (db/db mice, both doses of BJ (75 and 150 mg/kg)) was “significantly reduced”.
